pIC50: −log10 of the molar value.
What was measured:
[1] = target: IDO1 protease activity in Hela cells (Homo sapiens (Human), UniProt P14902); test: Inhibition of IDO protease in HeLa cells (IDO/kynurenine experiment, IFN-γ induced); format: cell-based; conditions: 10 ng/mL IFN-γ, 48 h, OD480 nm, read-out: IC50, inhibitory activity against IDO1 protease activity in Hela cells
Protocol: 2) Experimental Method for Compound Assay 2.1 Seeding HeLa Cells into 96 Well Plate
The medium was taken out from the flask and the cells were washed with PBS. TrypLE solution was added to the flask to make the cells separate. The cells were further washed once with fresh medium containing 10% FBS, and then re-suspended in the medium until the final concentration was 2.3×10^6/mL. Only cells with activity greater than 90% can be used for detection. HeLa cells were planted into 100 μL suitable growth median 96 well plate at 3000 cells/well. The cells were incubated at 37° C. under 5% CO2 overnight.
The compound was diluted to the concentration of 10 mM with DMSO, that was then continuously diluted 3 times to get 9 concentrations. 5 μL compound was added into 45 μL media as the median dilution (10 times dilution, containing 10% DMSO). 96 μL fresh growth media were added to each well to reach the total volume of 196 μL. 2 μL compound solution was taken from the mid-diluted solution and added to the cells in the wells of the assay plate, and then incubated in a 5% CO2 incubator at 37° C. for 30 minutes. 2 μL human IFN-γ solution was added to reach a total volume of 200 μL, with the final concentration of 10 ng/mL, and the final concentration is 0.1%. The cells were incubated in 5% CO2 incubator at 37° C. for 48 h.
After incubating for another 48 hours in a 5% CO2 incubator at 37° C., 140 μL supernatant was added to each well and transferred to a new 96-well plate. 10 μL of 6.1N CCl3COOH was further added to each well, and incubated at 50° C. for 30 min after sealing. The plate was then centrifuged at 2500 rpm for 10 minutes. 100 μL supernatant in each well was transferred to another 96-well assay plate and mixed with 100 μL of 6% (w/v) p-dimethylaminobenzaldehyde. EnSpire was used to read the plate at OD480 nm.
The average data of HC (high control: 10 ng/mL IFN-γ) and LC (low control: no IFN-γ) were calculated for each screening plate. Percent inhibition of compound well (% inh)=100*(aveHC−cpd well)/(aveHC−ave LC). Finally, GraphPad Prism 6 software was used to calculate the IC50 values of compounds and draw the effect-concentration curve.

[2] = Metabolic stability in mouse liver microsomes; format: in vitro ADME; conditions: mouse liver microsomes 0.5 mg/mL; read-out: Mouse liver microsomes Half-life t1/2
Protocol: (§1) Step 1: the mother liquor is prepared according to the composition ratio in Table 3 below:
(§2) Step 2: two experiments were respectively carried out as follows:
(§3) A) Adding NADPH:10 μL of liver microsomes at a concentration of 20 mg/mL and 40 μL of NADPH at a concentration of 10 mM were added to the incubation test. The final concentrations of liver microsomes and NADPH were 0.5 mg/mL and 1 mM, respectively.
(§4) B) Without addition of NADPH:10 μL of liver microsomes at a concentration of 20 mg/mL and 40 μL of high purity water were added to the incubation test. The final concentration of liver microsome was 0.5 mg/mL.
(§5) Step 3: 4 μL of 200 µM positive control or test compound was added and then the reaction was carried out. The positive control in this experiment was Verapamil. The final concentration of test compound was […].
(§6) Step 4: 50 μL was respectively taken out from the reaction solutions at the time points of 0, 15, 30, 45 and 60 min. 4× volumes of acetonitrile and IS (alprazolam at the concentration of 100 nM, labetalol at the concentration of 200 nM, caffeine at the concentration of 200 nM and ketoprofen at the concentration of 2 μM) were added to the reaction solution. The sample was centrifuged at 3,220 gram gravity for 40 minutes. 100 μL high-purity water was added to 100 μL supernatant and then analyzed by LC-MS/MS.
(§7) Step 5: Data analysis: the peak area was determined from the extracted ion chromatogram. The slope value k was determined by linear regression of the natural logarithm from the curve produced by the remaining percentage of the parent drug vs the incubation time.
(§8) In vitro half-life (in vitro t1/2) is determined by the slope value: in vitro t1/2=−(0.693/k)

[3] = Metabolic stability in human liver microsomes; format: in vitro ADME; conditions: human liver microsomes 0.5 mg/mL; read-out: Human liver microsomes Half-life t1/2
Protocol: as §1, §2, §3, §4, §5, §6, §7, §8

[4] = Metabolic stability in rat liver microsomes; format: in vitro ADME; conditions: rat liver microsomes 0.5 mg/mL; read-out: Rat liver microsomes Half-life t1/2
Protocol: as §1, §2, §3, §4, §5, §6, §7, §8

[5] = target: human IDO1 protease (Homo sapiens (Human), UniProt P14902); test: Inhibitory activity against human IDO1 protease (absorbance test method); format: biochemical; conditions: IDO1 (His-tag) enzyme, absorbance at 320 nm
Sequence of human IDO1 protease (P14902 whole entry): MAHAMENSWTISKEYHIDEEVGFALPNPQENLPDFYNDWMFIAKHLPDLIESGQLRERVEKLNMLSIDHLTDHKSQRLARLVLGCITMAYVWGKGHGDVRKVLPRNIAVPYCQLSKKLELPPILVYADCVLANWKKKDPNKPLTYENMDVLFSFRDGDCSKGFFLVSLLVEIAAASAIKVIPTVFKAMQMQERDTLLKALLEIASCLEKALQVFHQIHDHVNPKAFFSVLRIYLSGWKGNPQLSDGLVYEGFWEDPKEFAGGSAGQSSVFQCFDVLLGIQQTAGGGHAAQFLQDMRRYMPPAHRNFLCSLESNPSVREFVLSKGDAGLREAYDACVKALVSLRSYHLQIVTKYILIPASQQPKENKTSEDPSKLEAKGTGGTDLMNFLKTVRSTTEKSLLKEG
Protocol: IDO1 (His-tag) enzyme(BPS Bioscience), L-tryptophan (Sigma), methylene blue (Sigma), Catalase originated from the liver of cattle (Sigma), L-ascorbic acid (Sigma), glycerol (Sigma), potassium dihydrogen phosphate solution (Sigma), Tween 20 (Sigma), automatic sampling platformLiquid handler (Bravo & Echo), microplate ReaderSpectraMax M5e (Molecular Devices).
2) Test Method of Compounds: The Compounds are Determined by Absorbance Test Method:
The tested compounds are dissolved in DMSO to prepare a high concentration of storage solution. The stock solution of reference compound was diluted with DMSO to prepare a 100× solution. In the first column of the working plate, 8 μL above tested compounds and 8 μL 100× reference compound were respectively added as the highest concentration, and then the highest concentrations were subjected to three times dilution to obtain 11 concentrations and prepare 100× solution. 0.5 μL solution was transferred from the above plate to the detection plate. To each well was added 0.5 μL 100× compound solution. For HPE and ZPE control wells, 0.5 μL 100% DMSO was added. 25 μL 2×IDO1 (His-tag) enzyme solution (containing L-ascorbic acid, methylene blue, and catalase) was added to each well. 25 μL reaction solution without IDO1 (His-tag) enzyme was added into HPE control well. The test plate was centrifugated at 1000 rpm for 1 minute to mix well. Then, the test plate was incubated at room temperature for 30 minutes. 25 μL above 2× substrate (L-tryptophan) solution was added to each well. The test plate was centrifugated at 1000 rpm for 1 minute to mix well. The detection plate was placed on ELISA (SpectraMax M5e), the temperature was set at 25° C., and the absorbance (OD value) was measured at 320 nm every 10 minutes till 60 minutes.
Calculating the increase ratio of absorbance: the slope of the absorbance increase curve from 10 min to 60 min is derived from SpectralMax M5e. The inhibition coefficient of compound was calculated: the inhibition ratio of compound=(the absorbance increase ratio of ZPE control well−the absorbance increase ratio of compound well)/(the absorbance increase ratio of ZPE control well−the absorbance increase ratio of HPE control well)×100. Results was analyzed by Prism 5.0.

[6] = Pharmacokinetic experiment in mice (PO); format: in vivo; conditions: ICR, mouse, plasma, 10 mg/kg, 10 mpk; for Cmax: read-out: Blood concentration Cmax; for AUC: read-out: Curve area AUC; for half-life: read-out: Half life t1/2 (converted); for Tmax: read-out: Peak hour tmax
Protocol: Experimental animals: ICR mice (Chengdu Dashuo Experimental Animal Co., Ltd.)
5 mg of compound (compound 4 of the present invention, using similar compound INCB-24360 in clinical Phase III as reference compound) was accurately weighed, and the corresponding vehicle was added to a final volume of 10 ml, then mixed by ultrasonic vortexing. The solution at the concentration of 0.5 mg/ml was prepared. The final solution (0.2 ml) prepared was stored at −20° C. for concentration determination. 9 healthy adult ICR mice (20-30 g) were fasted overnight (free access to water), and received the administration volume of 0.2 ml/10 g by gavage; just prior to administration and 0.5, 1, 2, 4, 6, 8, 12, and 24 h after administration, 0.1 ml blood was collected from the retroorbital venous plexus, centrifuged at 4° C. for 5 min to separate the plasma, and stored at −20° C. for testing. Then the concentration of test compound in plasma was measured by LC/MS/MS method.

Sequence of IDO1 protease activity in Hela cells (P14902 whole entry): as above

Compound | pIC50 [1] | half-life at 2 µM [2] | half-life at 2 µM [3] | half-life at 2 µM [4] | pIC50 [5] | Cmax [6] | AUC [6] | half-life [6] | Tmax [6]
NS(=O)(=O)CCCCNc1nonc1C(=NO)Nc1ccc(F)c(Br)c1 [Example 22, N-(3-bromo-4-fluorophenyl)-N′-hydroxyl-4-((4-sulfamoylbutyl)amino)-1,2,5-oxadiazol-3-formamidine] | 7.92 | 1.45 h | 29.4 h | 1.22 h |  |  |  |  | 
CCNS(=O)(=O)CCCNc1nonc1C(=NO)Nc1ccc(F)c(Br)c1 [Example 12, N-(3-bromo-4-fluorophenyl)-N′-hydroxyl-4-((3-(N-ethylsulfamoyl)propyl)amino)-1,2,5-oxadiazol-3-formamidine] | 7.92 | 0.383 h | 2.73 h | 0.317 h | 7.33 | 704 ng/mL | 1080 ng·h/mL | 2.87 h | 0.5 h
CNS(=O)(=O)CCCNc1nonc1/C(=N/O)Nc1ccc(F)c(Br)c1 [Example 11, N-(3-bromo-4-fluorophenyl)-N′-hydroxyl-4-((3-(N-methylsulfamoyl)propyl)amino)-1,2,5-oxadiazol-3-formamidine] | 8.10 | 0.167 h | 1.55 h | 0.4 h |  | 687 ng/mL | 845 ng·h/mL | 1.15 h | 0.5 h
NS(=O)(=O)NCCNc1nonc1C(=NO)Nc1ccc(F)c(Br)c1 [INCB024360, reference compound] |  | 1.3 h | 2.62 h | 2.43 h |  |  |  |  | 
[2H]C([2H])([2H])NS(=O)(=O)CCCNc1nonc1/C(=N/O)Nc1ccc(F)c(Br)c1 [Example 27, N-(3-bromo-4-fluorophenyl)-N′-hydroxyl-4-((3-(N-(methyl-d3)sulfonyl)propyl)amino)-1,2,5-oxadiazol-3-oximecarboxamide] | 8.00 | 0.35 h | 5.72 h | 0.633 h |  | 469 ng/mL | 1050 ng·h/mL | 2.5 h | 0.5 h
NS(=O)(=O)CCNc1nonc1C(=NO)Nc1ccc(F)c(Br)c1 [Example 1, N-(3-bromo-4-fluorophenyl)-N′-hydroxyl-4-((2-sulfamoylethyl)amino)-1,2,5-oxadiazol-3-formamidine] |  | 0.8 h | 7.45 h | 1.73 h | 7.72 | 555 ng/mL | 1320 ng·h/mL | 1.28 h | 0.67 h

Source: patent publication US11591301B2, “Indoleamine-2,3-dioxygenase inhibitor, preparation method therefor and use thereof” (HINOVA PHARMACEUTICALS INC., priority 2018, dated 2023)
